Measurements from article PMC5711494, “Sterol methyltransferase a target for anti-amoeba therapy: towards transition state analog and suicide substrate drug design” (Journal of Lipid Research, 2017).
Where two headings read alike, the source gives them in different places.

Columns and labels:
[1] = test system: Ac24-SMT; experiment: Substrate kinetics and product analysis with recombinant Ac24-SMT; assay type: biochemical, Acanthamoeba castellanii; details: for product ratio generated by Ac24-SMT: normalized to cycloartenol at ∼70% conversion, saturating substrate, 45 min, 35°C
Description: (§1) The SMT constructs were transformed into competent BL21(DE3) cells and transformants selected against 100 µg/ml ampicillin. Expression of the SMT constructs and partial purification of the recombinant proteins followed the procedure described previously ([19]). […] In one tube, cells were induced by addition of isopropyl thio-galactoside at a final concentration of 1 mM and in the other tube, were un-induced. Cells were harvested 2 and 4 h after induction and an equal number of cells (as calculated by OD @600 nm) from induced (+) and un-induced (−) cultures were boiled with 1X Laemmli’s buffer and analyzed by SDS-PAGE (12%). Gel was stained with Coomassie Brilliant Blue (0.2%) to establish the molecular weight and purity of the expressed protein. Total protein concentrations were determined by Bradford dye-binding procedure with bovine γ-globulin as standard. To determine the catalytic activity of the recombinant proteins, enzyme assays were carried out using soluble bacterial extract (100,000 g fraction) in 9 ml test tubes containing a total of 600 µl assay volume for 45 min (initial velocity conditions). The assay buffer contained 20 mM phosphate buffer in 5% (v/v) glycerol at pH 7.5, sterol acceptor emulsified in 12 µl Tween 80 (1.2 g/l), and the substrate tested over the concentration range 5 to 150 µM against 1.2 mg of total protein. The reaction was initiated by the addition of saturating levels of [methyl-^3H3]SAM, 0.9 µCi, at 150 µM. Incubation mixtures were saponified with methanolic potassium hydroxide and extracted with hexane (3 × 1 ml) and concentrated to dryness providing the nonsaponifiable lipid fraction; radioactivity was determined by liquid scintillation counting. […]

[2] = test system: Ac28-SMT; experiment: Substrate kinetics and product analysis with recombinant Ac28-SMT; assay type: biochemical, Acanthamoeba castellanii; parameters: catalytic competence (kcat/Km) with Ac28-SMT: unit not given here; details: for product ratio generated by Ac28-SMT: normalized, saturating substrate, 45 min, 35°C
Description: as §1

[3] = test system: TbSMT; parameters: method as in PMID 26496686; details: cited from earlier work
[4] = test system: Acanthamoeba castellanii trophozoites sterol biosynthesis; experiment: Sterol composition of treated Ac trophozoites (GC/MS); assay type: cell-based; details: to 48 h
Description: Amoeba and HEK cells were harvested at one or more points during growth in the presence and absence of steroidal inhibitor and azole at IC50 or MACs of the inhibitor or at 40 µM for HEK cells. Cell pellets were split with an internal standard of known amounts of 5α-cholestane added to one of the cell pellets for determination of sterol amounts in cells. Cells were saponified directly in aqueous methanolic potassium hydroxide at the reflux temperature for 1 h, which yielded total sterol (free plus sterol released from ester bonds). The resulting neutral lipids obtained by dilution with water and extraction with hexane (Fisher) were analyzed by GC/MS or HPLC-equipped with a diode array detector against cholesterol as a chromatographic reference. GC and HPLC retention times of sterols were compared with those obtained from authentic standards in our steroid collection ([18]–[22]). To determine the trophozoite sterol metabolome, GC/MS analysis of cell pellet nonsaponfiables was typically carried out using control cultures incubated in 5 ml medium in 25 ml T-flasks inoculated with 1 × 10^4 trophozoites/ml and cultured for 72 h. To generate significant cell pellets for sterol analysis of treated cells, trophozoites were cultured in 10 ml medium in 25 ml T-flasks inoculated with 1 × 10^5 cells/ml and grown for 48 h.

[5] = test system: Acanthamoeba castellanii trophozoites (strain ATCC 30010); experiment: Ac trophozoite growth inhibition and minimum amoebicidal concentration (trypan blue exclusion); assay type: cell-based; details: 48 h incubation
Description: Ac strain ATCC 30010 was inoculated (1 × 10^4 cells/ml) into tissue culture T-25 ml flasks, prepared with ATTC media 712 and cultured axenically in 5 ml medium at 25°C. Continuous cultures populated by trophozoites ([…]; the remaining cells were cysts) was maintained by sub-culturing 4–5 day growth arrested cells (1 × 10^6 cells/ml) into fresh medium. Steroidal inhibitor and azole susceptibility assays were performed in 24-well (4 × 6) microtiter plates (3 ml total). Trophozoite assay conditions and preparation of stock solutions made to 1 μg/10 μl and 1 μg/100 μl in DMSO through serial dilution to achieve final inhibitor concentrations of 64, 32, 16, 8, 4, 2, 1, 0.5, 0.25, 0.125, 0.0625, and 0.03125 µg/ml in 1% DMSO as reported previously for voriconazole incubated with Ac ([25]). Growth curves to evaluate treated trophozoites were initiated with 1 × 10^6 cells/ml and incubated for 48 h. Cell number was calculated with the use of a hemocytometer. The percentage of viable trophozoites following exposure to different concentrations of inhibitors was determined by the standard trypan blue exclusion method. Cells stained blue were considered nonviable. […] The IC50 of inhibitors against trophozoite growth was evaluated using GraphPad Prism with default setting (GraphPad Software Inc., CA).

[6] = test system: Acanthamoeba castellanii trophozoites (strain ATCC 30010); parameters: method as in PMID 26014948; details: previously reported; read-out: IC50 for Ac growth, previously reported value; cited from earlier work

Row | Molecule | product ratio generated by Ac24-SMT [1] | product ratio generated by Ac28-SMT [2] | other results
1 | C=C(CC[C@@H](C)[C@H]1CC[C@@]2(C)C3=C(CC[C@]12C)[C@@]1(C)CC[C@H](O)[C@@H](C)[C@@H]1CC3)C(C)C [obtusifoliol] | 0 | 0 | 
2 | eburicol | 0 | 0 | 
3 | C=C(CCC(C)C1CCC2C3=CCC4CC(O)CCC4(C)C3CCC21C)C(C)C (stereo not drawn) [episterol] | 0 | 64 | 
4 | CC(C)=CCCC(C)C1CCC2C3=C(CCC21C)C1(C)CCC(O)CC1CC3 (stereo not drawn) [zymosterol] | 97 | 63 | 
5 | CC(C)=CCC[C@@H](C)[C@H]1CC[C@@]2(C)C3=C(CC[C@]12C)[C@@]1(C)CC[C@H](O)C(C)(C)[C@@H]1CC3 [lanosterol] | 100 | 15 | 
6 | CC(C)=CCCC(C)C1CC[C@@]2(C)C3=C(CCC12C)C1(C)CCC(O)CC1CC3 (stereo partly drawn) [14α-methylzymosterol] | 97 | 26 | 
7 | C=C(CCC(C)C1CCC2C3=C(CCC21C)C1(C)CCC(O)CC1CC3)C(C)C (stereo not drawn) [fecosterol] | 0 | 29 | 
8 | CC(C)=CCCC(C)C1CC[C@@]2(C)C3=C(CCC12C)C1(C)CCC(O)[C@@H](C)C1CC3 (stereo partly drawn) [31-norlanosterol] | 100 | 49 | 
9 | CC(C)=CCCC(C)C1CCC2C3=CC=C4CC(O)CCC4(C)C3CCC21C (stereo not drawn) [cholesta-5,7,24-trienol] | 100 | 50 | 
10 | C=C(CCC(C)C1CCC2C3=CCC4C(C)C(O)CCC4(C)C3CCC21C)C(C)C (stereo not drawn) [24(28)-methylenelophenol] | 0 | 100 | Km as substrate of Ac28-SMT ([2]; from Lineweaver-Burk plots): ~25 µM; catalytic competence (kcat/Km) with Ac28-SMT ([2]; from Lineweaver-Burk plots): ~0.03; kcat as substrate of Ac28-SMT ([2]; from Lineweaver-Burk plots): ~0.013 s⁻¹
11 | C=C(CCC(C)C1CCC2(C)C3CCC4C(C)(C)C(O)CCC45CC35CCC12C)C(C)C (stereo not drawn) [24(28)-methylenecycloartanol] | 0 | 0 | 
12 | CC(=CCC[C@@H](C)[C@H]1CC[C@H]2C3=CC=C4C[C@@H](O)CC[C@]4(C)[C@H]3CC[C@]12C)CF [26-flourocholesta-5,7,24-trieniol] |  |  | partition ratio against TbSMT [3]: 3
13 | C[C@@H](c1ncncc1F)[C@](O)(Cn1cncn1)c1ccc(F)cc1F [voriconazole] |  |  | accumulation of substrate of the target enzyme in treated trophozoites [4]: ≤ 1 % total; MAC (complete inhibition of growth, minimum amoebicidal concentration) [5]: 3 µM; IC50 ([5]; Acanthamoeba castellanii, ATCC30010, Ac trophozoites): 140 nM; IC50 [6]: 390 nM
14 | CC(C)=CCC[C@@H](C)[C@H]1CC[C@@]2(C)[C@@H]3CC[C@H]4C(C)(C)[C@@H](O)CC[C@@]45C[C@@]35CC[C@]12C [cycloartenol] | 100 | 67 | Km (Michaelis / binding constant) as substrate of Ac24-SMT ([1]; saturating SAM 150 µM, initial velocity conditions): ~44 µM; kcat (turnover rate) as substrate of Ac24-SMT ([1]; saturating SAM, initial velocity conditions): about 1.5 min^−1
15 | C=C(CC[C@@H](C)[C@H]1CC[C@@]2(C)[C@@H]3CC[C@H]4[C@H](C)[C@@H](O)CC[C@@]45C[C@@]35CC[C@]12C)C(C)C [cycloeucalenol] | 0 | 0 | 
